Measurements reported in ChEMBL document CHEMBL3045093, “Synthesis, spectral correlation and insect antifeedant activities of some 2-benzimidazole chalcones” (J Saudi Chem Soc, 2013).
Calls of active or inactive are those of the source. The calls are words filed in the database; no cut-off is given here.

Tested on: Achaea janata
Experiment: Antifeedant activity against 4th instar larvae of Achaea janata in […] leaves assessed as total leaf disc consumed at 150 ppm after 24 hrs by leaf disc bioassay
Format: functional, organism-based

Row | SMILES | Activity
1 | O=C(/C=C/c1ccc(Br)cc1)c1nc2ccccc2[nH]1 | Active

Tested on: Achaea janata
Experiment: Antifeedant activity against 4th instar larvae of Achaea janata in […] leaves assessed as total leaf disc consumed at 200 ppm after 24 hrs by leaf disc bioassay
Format: functional, organism-based

Row | SMILES | Activity
2 | COc1ccc(/C=C/C(=O)c2nc3ccccc3[nH]2)cc1 | Active
3 | Cc1ccc(/C=C/C(=O)c2nc3ccccc3[nH]2)cc1 | Active
4 | O=C(/C=C/c1cccc(Cl)c1)c1nc2ccccc2[nH]1 | Active
5 | O=C(/C=C/c1ccc(O)cc1)c1nc2ccccc2[nH]1 | Active
6 | COc1cccc(/C=C/C(=O)c2nc3ccccc3[nH]2)c1 | Active
7 | O=C(/C=C/c1ccccc1Cl)c1nc2ccccc2[nH]1 | Active
8 | O=C(/C=C/c1ccc(F)cc1)c1nc2ccccc2[nH]1 | Active
9 | O=C(/C=C/c1ccccc1[N+](=O)[O-])c1nc2ccccc2[nH]1 | Active
10 | O=C(/C=C/c1ccccc1O)c1nc2ccccc2[nH]1 | Active
11 | O=C(/C=C/c1ccc(Cl)cc1)c1nc2ccccc2[nH]1 | Active
12 | O=C(/C=C/c1cccc([N+](=O)[O-])c1)c1nc2ccccc2[nH]1 | Active
13 | O=C(/C=C/c1cccc(O)c1)c1nc2ccccc2[nH]1 | Active
14 | O=C(/C=C/c1ccccc1)c1nc2ccccc2[nH]1 | Active
15 | O=C(/C=C/c1ccc([N+](=O)[O-])cc1)c1nc2ccccc2[nH]1 | Active
16 | Cc1cccc(/C=C/C(=O)c2nc3ccccc3[nH]2)c1 | Active
17 | O=C(/C=C/c1ccccc1Br)c1nc2ccccc2[nH]1 | Active
18 | CN(C)c1ccc(/C=C/C(=O)c2nc3ccccc3[nH]2)cc1 | Active
19 | O=C(/C=C/c1ccc(Br)cc1)c1nc2ccccc2[nH]1 | Active
20 | Cc1ccccc1/C=C/C(=O)c1nc2ccccc2[nH]1 | Active
21 | O=C(/C=C/c1cccc(Br)c1)c1nc2ccccc2[nH]1 | Active
22 | COc1ccccc1/C=C/C(=O)c1nc2ccccc2[nH]1 | Active
